Experimental data published in patent US8192962B2, “Processes for detecting toxic substances” (Daikin Industries, Ltd., priority 2001, dated 2012).

System: Genes belonging to other category
Assay: DNA chip mRNA expression in yeast, genes belonging to other category (Table 9)
Type: cell-based, Saccharomyces cerevisiae S288C
Method in brief: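 Value is the scanned fluorescence intensity ratio of exposed versus chemical-free cells. Log-phase S288C yeast in YPD at 25° C. received one toxic substance for two hours, dosed to slow growth without killing; Cy3/Cy5-labeled cDNA from oligo-dT-purified mRNA was hybridized to a whole-genome chip at 65° C.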

S=C([S-])NCCNC(=S)[S-].[Zn+2] [(11), zinc N,N′-ethylenebis(dithiocarbamate)]
The level of expressed mRNA in the presence of chemical substance/The level of expressed mRNA in the absence of chemical substance (yeast gene YAR010C): 0.9 | The level of expressed mRNA in the presence of chemical substance/The level of expressed mRNA in the absence of chemical substance (yeast gene YBL005W-A): 0.8 | The level of expressed mRNA in the presence of chemical substance/The level of expressed mRNA in the absence of chemical substance (yeast gene YBL041W): 1.6 | The level of expressed mRNA in the presence of chemical substance/The level of expressed mRNA in the absence of chemical substance (yeast gene YBL043W): 1.5 | The level of expressed mRNA in the presence of chemical substance/The level of expressed mRNA in the absence of chemical substance (yeast gene YBL078C): 4.6 | The level of expressed mRNA in the presence of chemical substance/The level of expressed mRNA in the absence of chemical substance (yeast gene YBL101C): 0.8 | The level of expressed mRNA in the presence of chemical substance/The level of expressed mRNA in the absence of chemical substance (yeast gene YBL101W-A): 1.2 | The level of expressed mRNA in the presence of chemical substance/The level of expressed mRNA in the absence of chemical substance (yeast gene YBL102W): 1.2 | The level of expressed mRNA in the presence of chemical substance/The level of expressed mRNA in the absence of chemical substance (yeast gene YBR009C): 0.8 | The level of expressed mRNA in the presence of chemical substance/The level of expressed mRNA in the absence of chemical substance (yeast gene YBR031W): 0.9 | The level of expressed mRNA in the presence of chemical substance/The level of expressed mRNA in the absence of chemical substance (yeast gene YBR128C): 1.3 | The level of expressed mRNA in the presence of chemical substance/The level of expressed mRNA in the absence of chemical substance (yeast gene YBR177C): 0.6 | The level of expressed mRNA in the presence of chemical substance/The level of expressed mRNA in the absence of chemical substance (yeast gene YBR214W): 3.2 | The level of expressed mRNA in the presence of chemical substance/The level of expressed mRNA in the absence of chemical substance (yeast gene YBR239C): 0.7 | The level of expressed mRNA in the presence of chemical substance/The level of expressed mRNA in the absence of chemical substance (yeast gene YBR290W): 1.2 | The level of expressed mRNA in the presence of chemical substance/The level of expressed mRNA in the absence of chemical substance (yeast gene YCL020W): 1.3 | The level of expressed mRNA in the presence of chemical substance/The level of expressed mRNA in the absence of chemical substance (yeast gene YCL027W): 0.9 | The level of expressed mRNA in the presence of chemical substance/The level of expressed mRNA in the absence of chemical substance (yeast gene YCL067C): 1.6 | The level of expressed mRNA in the presence of chemical substance/The level of expressed mRNA in the absence of chemical substance (yeast gene YCR004C): 1.9 | The level of expressed mRNA in the presence of chemical substance/The level of expressed mRNA in the absence of chemical substance (yeast gene YCR039C): 1.2 | The level of expressed mRNA in the presence of chemical substance/The level of expressed mRNA in the absence of chemical substance (yeast gene YCR062W): 1.2 | The level of expressed mRNA in the presence of chemical substance/The level of expressed mRNA in the absence of chemical substance (yeast gene YCR067C): 1.2 | The level of expressed mRNA in the presence of chemical substance/The level of expressed mRNA in the absence of chemical substance (yeast gene YCR069W): 1.3 | The level of expressed mRNA in the presence of chemical substance/The level of expressed mRNA in the absence of chemical substance (yeast gene YCR071C): 1.1 | The level of expressed mRNA in the presence of chemical substance/The level of expressed mRNA in the absence of chemical substance (yeast gene YCR088W): 1.0 | The level of expressed mRNA in the presence of chemical substance/The level of expressed mRNA in the absence of chemical substance (yeast gene YCR096C): 1.4 | The level of expressed mRNA in the presence of chemical substance/The level of expressed mRNA in the absence of chemical substance (yeast gene YCR106W): 1.2 | The level of expressed mRNA in the presence of chemical substance/The level of expressed mRNA in the absence of chemical substance (yeast gene YDL008W): 0.9 | The level of expressed mRNA in the presence of chemical substance/The level of expressed mRNA in the absence of chemical substance (yeast gene YDL061C): 1.4 | The level of expressed mRNA in the presence of chemical substance/The level of expressed mRNA in the absence of chemical substance (yeast gene YDL143W): 1.3 | The level of expressed mRNA in the presence of chemical substance/The level of expressed mRNA in the absence of chemical substance (yeast gene YDL238C): 1.1 | The level of expressed mRNA in the presence of chemical substance/The level of expressed mRNA in the absence of chemical substance (yeast gene YDR055W): 2.2 | The level of expressed mRNA in the presence of chemical substance/The level of expressed mRNA in the absence of chemical substance (yeast gene YDR080W): 1.2 | The level of expressed mRNA in the presence of chemical substance/The level of expressed mRNA in the absence of chemical substance (yeast gene YDR084C): 0.7 | The level of expressed mRNA in the presence of chemical substance/The level of expressed mRNA in the absence of chemical substance (yeast gene YDR085C): 1.7 | The level of expressed mRNA in the presence of chemical substance/The level of expressed mRNA in the absence of chemical substance (yeast gene YDR104C): 1.0 | The level of expressed mRNA in the presence of chemical substance/The level of expressed mRNA in the absence of chemical substance (yeast gene YDR115W): 1.2 | The level of expressed mRNA in the presence of chemical substance/The level of expressed mRNA in the absence of chemical substance (yeast gene YDR181C): 0.8 | The level of expressed mRNA in the presence of chemical substance/The level of expressed mRNA in the absence of chemical substance (yeast gene YDR188W): 0.9 | The level of expressed mRNA in the presence of chemical substance/The level of expressed mRNA in the absence of chemical substance (yeast gene YDR257C): 1.3 | The level of expressed mRNA in the presence of chemical substance/The level of expressed mRNA in the absence of chemical substance (yeast gene YDR259C): 1.2 | The level of expressed mRNA in the presence of chemical substance/The level of expressed mRNA in the absence of chemical substance (yeast gene YDR264C): 0.9 | The level of expressed mRNA in the presence of chemical substance/The level of expressed mRNA in the absence of chemical substance (yeast gene YDR276C): 1.4 | The level of expressed mRNA in the presence of chemical substance/The level of expressed mRNA in the absence of chemical substance (yeast gene YDR304C): 1.2 | The level of expressed mRNA in the presence of chemical substance/The level of expressed mRNA in the absence of chemical substance (yeast gene YDR315C): 1.1 | The level of expressed mRNA in the presence of chemical substance/The level of expressed mRNA in the absence of chemical substance (yeast gene YDR358W): 1.0 | The level of expressed mRNA in the presence of chemical substance/The level of expressed mRNA in the absence of chemical substance (yeast gene YDR378C): 0.8 | The level of expressed mRNA in the presence of chemical substance/The level of expressed mRNA in the absence of chemical substance (yeast gene YDR382W): 1.2 | The level of expressed mRNA in the presence of chemical substance/The level of expressed mRNA in the absence of chemical substance (yeast gene YDR388W): 1.6 | The level of expressed mRNA in the presence of chemical substance/The level of expressed mRNA in the absence of chemical substance (yeast gene YDR407C): 1.2
